Patent publication US20140242093A1, “METHODS AND COMPOSITIONS FOR MODULATING THE INNATE IMMUNE RESPONSE AND/OR MYOGENESIS IN A MAMMALIAN SUBJECT” (FRED HUTCHINSON CANCER RESEARCH CENTER, priority 2011, published 2014)

Test system: control human primary myoblasts
Test: Expression microarray of primary myoblasts transduced with lentivirus carrying DUX4-fl, DUX4-s or GFP
Conditions: cultured human skeletal muscle
Method: Primary human myoblasts were collected and cultured as previously described (Snider et al., 2010). Primary myoblasts were maintained at or below 70% confluency for proliferation. For differentiation, cells were allowed to reach 95-100% confluency in growth medium. Once confluency was reached, the cells were changed to differentiation medium (F10 media supplemented with 1% horse serum, 10 μg/mL insulin, and 10 μg/mL transferrin, penicillin/streptomycin) and maintained for 4 days. Human RD cells were grown in DMEM in 10% bovine calf serum (Hyclone) and penicillin/streptomycin. The primary myoblasts were transduced with lentivirus carrying DUX-fl, DUX4- or GFP (MOI=15).
Expression microarrays were performed on the transduced cells at 24 hours after transduction as follows. […] Samples were analyzed by Illumina Human Whole Genome microarrays. Probe intensities were corrected, normalized, and summarized by the Lumi package of Bioconductor (Du et al., 2008). Differentially expressed genes were identified by the LIMMA package of Bioconductor (Wettenhall and Smyth, 2004). Gene set enrichment analysis (GSEA) was performed using the Bioconductor GOstats package (Falcon and Gentleman, 2007).

## DUX4-fl: full-length DUX4 protein (SEQ ID NO:110), expressed from lentiviral or pCS2 vectors or in vitro translated
  MT1A expression fc: −1.526
  MT2A expression fc: −1.443
  MUC1 expression fc: −1.74
  MYBPHL expression fc: −1.492
  MYF5 expression fc: −1.587
  MYH13 expression fc: −1.441
  NACC2 expression fc: −1.787
  NFIL3 expression fc: −1.823
  NFKB1 expression fc: −1.512
  NFKBIZ expression fc: −1.572
  NINJ1 expression fc: −1.694
  NPTX2 expression fc: −1.386
  NRXN2 expression fc: −1.627
  NT5E expression fc: −1.558
  OCEL1 expression fc: −1.412
  P2RX6 expression fc: −1.475
  PARP3 expression fc: −1.483
  PCK2 expression fc: −1.776
  PCTK3 expression fc: −1.641
  PDK4 expression fc: −1.521
  PDPN expression fc: −1.623
  PFKFB4 expression fc: −1.865
  PHF15 expression fc: −1.415
  PHLDA3 expression fc: −1.557
  PLA2G4C expression fc: −1.429
  PLEKHA4 expression fc: −1.457
  PLIN2 expression fc: −1.413
  PLXNB1 expression fc: −1.442
  PLXNB2 expression fc: −1.649
  PPAP2B expression fc: −1.742
  PPP3CC expression fc: −1.457
  PRDM1 expression fc: −1.573
  PRKCD expression fc: −1.531
  PSMB10 expression fc: −1.6
  PSME2 expression fc: −1.477
  PTGES expression fc: −1.632
  PTPRU expression fc: −1.477
  RALGDS expression fc: −1.475
  RBCK1 expression fc: −1.636
  RBM43 expression fc: −1.517
  RCAN1 expression fc: −1.566
  RELB expression fc: −1.391
  RGS20 expression fc: −1.478
  RHBDF2 expression fc: −1.741
  RRAS expression fc: −1.405
  RRBP1 expression fc: −1.483
  RTKN expression fc: −1.734
  RTTN expression fc: −1.663
  RUSC1 expression fc: −1.47
  SERPING1 expression fc: −1.668
  SESN1 expression fc: −1.581
  SHISA5 expression fc: −1.763
  SIX5 expression fc: −1.673
  SLC16A3 expression fc: −1.582
  SLC22A18 expression fc: −1.56
  SLC25A28 expression fc: −1.534
  SLC39A14 expression fc: −1.872
  SPTLC3 expression fc: −1.444
  SQSTM1 expression fc: −1.695
  SRGN expression fc: −1.873
  STC1 expression fc: −1.571
  STEAP3 expression fc: −1.405
  SUSD2 expression fc: −1.398
  TAPBP expression fc: −1.844
  TCEA3 expression fc: −1.706
  TCP11L1 expression fc: −1.532
  TMEM45A expression fc: −1.574
  TMEM173 expression fc: −1.816
  TNFAIP2 expression fc: −1.593
  TNFRSF1A expression fc: −1.672
  TNFRSF6B expression fc: −1.678
  TNFSF13B expression fc: −1.763
  TNS3 expression fc: −1.56
  TRAF3IP2 expression fc: −1.529
  TRIP6 expression fc: −1.457
  TRNP1 expression fc: −1.527
  TSC22D3 expression fc: −1.729
  VASN expression fc: −1.76
  VEZF1 expression fc: −1.528
  XBP1 expression fc: −1.679
